From paper PMC9250534, “Synthesis and direct assay of large macrocycle diversities by combinatorial late-stage modification at picomole scale” (Nature Communications, 2022) come the findings set out here.

Each structure is given as a SMILES string. Numbered stars: 1 amine (or outer) side, 2 acyl side, 3 side chain; on linkers, the order of the positions; unused ones are H or OH. Bridge positions count the residues as written; N and C are the ends. Square brackets hold non-standard residues; d marks the D form. Peptide text beside a SMILES is read from it. * marks the point of attachment. ξ: configuration not given here. Pro(4S-NHCO(5-Cl-2-thienyl)) = O=C(N[C@@H]1CN[C@H](C(=O)O)C1)c1ccc(Cl)s1; ξPro(4-NHCO(5-Cl-2-thienyl)) = O=C(NC1CNC(C(=O)O)C1)c1ccc(Cl)s1; Shikimoyl = O=C(C1=C[C@@H](O)[C@@H](O)[C@H](O)C1)*; 1,2,3Thiadiazole5CO(4-Me) = Cc1nnsc1C(=O)*; 2Thenoyl(5-Cl) = O=C(c1ccc(Cl)s1)*; Benzoyl(4-Cl) = O=C(c1ccc(Cl)cc1)*; Cysteamide = C(CS[*:3])N[*:1]; X1 = O=C(/C=C/c1ccccc1)*; Api = NC1(C(=O)O)CCNCC1; Dap = NC[C@H](N)C(=O)O; X15 = O=C(c1cc[nH]n1)*; Mpa = O=C(O)CCS

The target in this test is MDM2 (Homo sapiens, UniProt Q00987). As to the kind of experiment: MDM2 binding screen: displacement of fluorescent p53 peptide probe FP53 (fluorescence polarization). As to conditions: for fraction fluorescent probe displaced, Screen: initial screen; for fraction fluorescent probe displaced, Screen / fraction fluorescent probe displaced, Replicate: crude macrocycle reactions. A digest of the protocol:
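Macrocycle reaction products at a final 10 µM were tested for displacement of a p53-based fluorescent peptide from human MDM2. Fluorescence anisotropy (ex 485/em 535 nm) was read once per macrocycle at 25 °C.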

The mark [1] stands for this setting: 10 µM macrocycle concentration, crude acylated macrocycle (scaffold Mpa-AA1-AA2-AA3 x carboxylic acid), p53-based fluorescent peptide, human MDM2.

Sequence of MDM2 (Q00987 whole entry): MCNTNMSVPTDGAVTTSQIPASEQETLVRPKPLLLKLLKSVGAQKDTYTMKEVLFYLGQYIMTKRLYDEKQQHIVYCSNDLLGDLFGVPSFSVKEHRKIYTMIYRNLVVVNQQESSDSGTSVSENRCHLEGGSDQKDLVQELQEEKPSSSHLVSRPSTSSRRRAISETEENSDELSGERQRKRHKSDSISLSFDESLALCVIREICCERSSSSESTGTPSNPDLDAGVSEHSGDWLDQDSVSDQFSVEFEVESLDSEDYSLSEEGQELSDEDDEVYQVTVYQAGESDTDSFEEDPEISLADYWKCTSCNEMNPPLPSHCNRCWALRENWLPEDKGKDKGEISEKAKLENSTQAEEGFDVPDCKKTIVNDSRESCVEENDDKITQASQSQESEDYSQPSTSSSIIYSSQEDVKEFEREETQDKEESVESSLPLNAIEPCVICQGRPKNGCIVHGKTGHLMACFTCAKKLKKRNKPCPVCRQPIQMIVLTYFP

Consider `O=C1CCNC(=O)C2(CCN(C(=O)/C=C/c3ccccc3)CC2)NC(=O)CCSSCCNC(=O)[C@H](Cc2c[nH]c3ccccc23)N1` [X D6 B2 W Acid 91], for which, under “Acid 91”, the “fraction fluorescent probe displaced, Screen” value is recorded as 0.19. For the same compound, the “fraction fluorescent probe displaced, Replicate” value (Acid 91, replicate) is 0.09.

With `O=C1CCSSCCNC(=O)c2cccc(c2)CNC(=O)[C@H](CNC(=O)c2ccc(Cl)s2)NC(=O)[C@H](Cc2c[nH]c3ccccc23)N1` [X W D3 B5 Acid 14], the “fraction fluorescent probe displaced, Screen” value (Acid 14) is 0.31. In addition, the “fraction fluorescent probe displaced, Replicate” value (Acid 14, replicate) came to 0.07.

As to `O=C(NC[C@@H]1NC(=O)[C@@H]2CCCN2C(=O)CCSSCCNC(=O)[C@H](Cc2ccccc2)NC1=O)C1=C[C@@H](O)[C@@H](O)[C@H](O)C1` [X-B1-D3-F + A72] ([Mpa]P[Dap](Shikimoyl)F-Cysteamide; disulfide 1-C), the “fraction fluorescent probe displaced” value under setting [1] is 0.06911.

Turning to `O=C1CCSSCCNC(=O)C2(CCN(C(=O)c3ccc(Cl)cc3)CC2)NC(=O)[C@H]2CCCN(C2)C(=O)[C@H](Cc2c[nH]c3ccccc23)N1` [X W B4 D6 Acid 25], the “fraction fluorescent probe displaced, Screen” value (Acid 25) is given as 0.25. Under “Acid 25, replicate”, the “fraction fluorescent probe displaced, Replicate” value is on record as 0.12.

For `O=C(NC[C@@H]1NC(=O)[C@@H]2CCCN2C(=O)CCSSCCNC(=O)[C@H](Cc2c[nH]c3ccccc23)NC1=O)c1ccc(Cl)cc1` [X-B1-D3-W + A25] ([Mpa]P[Dap](Benzoyl(4-Cl))W-Cysteamide; disulfide 1-C), the “fraction fluorescent probe displaced” value under setting [1] is reported as 0.2195.

As for `O=C(/C=C/c1ccccc1)NC[C@@H]1NC(=O)[C@H](Cc2ccccc2)NC(=O)CCSSCCNC(=O)[C@@H]2CCCN2C1=O` [X F D3 B1 Acid 91] ([Mpa]F[Dap](X1)P-Cysteamide; disulfide 1-C), the “fraction fluorescent probe displaced, Screen” value (Acid 91) is -0.0241. Further, the “fraction fluorescent probe displaced, Replicate” value (Acid 91, replicate) is on record as -0.00827.

As to `O=C1CCSSCCNC(=O)C(Cc2c[nH]c3ccccc23)NC(=O)C2CC(NC(=O)c3ccc(Cl)s3)CN2C(=O)CCN1` (centres unmarked) [X B2 D5 W Acid 14], for the setting “Acid 14”, the “fraction fluorescent probe displaced, Screen” value was determined as 0.11. The “fraction fluorescent probe displaced, Replicate” value (Acid 14, replicate) was determined as 0.17.

For `O=C1CCSSCCNC(=O)[C@H](Cc2c[nH]c3ccccc23)NC(=O)[C@H]2CCCN(C2)C(=O)[C@H](CNC(=O)c2ccc(Cl)cc2)N1` [X D3 B4 W Acid 25], the “fraction fluorescent probe displaced, Screen” value (Acid 25) is on record as 0.25. In addition, the “fraction fluorescent probe displaced, Replicate” value (Acid 25, replicate) is recorded as 0.20.

On to `O=C1CCSSCCNC(=O)c2cccc(c2)CNC(=O)C2(CCN(C(=O)c3ccc(Cl)cc3)CC2)NC(=O)C(Cc2c[nH]c3ccccc23)N1` (centres unmarked) [X W D6 B5 Acid 25], for which the “fraction fluorescent probe displaced, Screen” value (Acid 25) was found to be 0.15. In addition, the “fraction fluorescent probe displaced, Replicate” value (Acid 25, replicate) amounted to 0.12.

As to `O=C(NC[C@@H]1NC(=O)[C@@H]2CCCN2C(=O)CCSSCCNC(=O)[C@H](Cc2c[nH]c3ccccc23)NC1=O)c1cc[nH]n1` [X-B1-D3-W + A5] ([Mpa]P[Dap](X15)W-Cysteamide; disulfide 1-C), the “fraction fluorescent probe displaced” value under setting [1] was 0.05625.

Consider `O=C(NC1CC2C(=O)NC(Cc3ccccc3)C(=O)N3CCCC(C3)C(=O)NCCSSCCC(=O)N2C1)c1ccc(Cl)s1` (centres unmarked) [X D5 F B4 Acid 14], for which the “fraction fluorescent probe displaced, Screen” value (Acid 14) turned out to be 0.0241. Further, the “fraction fluorescent probe displaced, Replicate” value (Acid 14, replicate) was 0.10.

With `O=C(NCC1NC(=O)C2CCCN(C2)C(=O)CCSSCCNC(=O)C(Cc2ccccc2)NC1=O)c1ccc(Cl)s1` (centres unmarked) [X B4 D3 F Acid 14], the “fraction fluorescent probe displaced, Screen” value (Acid 14) stood at 0.14. For the same compound, under “Acid 14, replicate”, the “fraction fluorescent probe displaced, Replicate” value is recorded as 0.15.

As to `O=C1CCSSCCNC(=O)C2(CCN(C(=O)/C=C/c3ccccc3)CC2)NC(=O)[C@H](Cc2c[nH]c3ccccc23)NC(=O)c2cccc(c2)CN1` [X B5 W D6 Acid 91], the “fraction fluorescent probe displaced, Screen” value (Acid 91) came to 0.16. Further, the “fraction fluorescent probe displaced, Replicate” value (Acid 91, replicate) is 0.17.

Take `O=C(C=Cc1ccccc1)NCC1NC(=O)C(Cc2ccccc2)NC(=O)C2CCCN(C2)C(=O)CCSSCCNC1=O` (centres unmarked) [X B4 F D3 Acid 91]: the “fraction fluorescent probe displaced, Screen” value (Acid 91) is listed as 0.03. The “fraction fluorescent probe displaced, Replicate” value (Acid 91, replicate) is reported as -0.00827.

Regarding `O=C1CCSSCCNC(=O)[C@H]2CCCN(C2)C(=O)C2(CCN(C(=O)c3ccc(Cl)cc3)CC2)NC(=O)[C@H](Cc2ccccc2)N1` [X F D6 B4 Acid 25], for the setting “Acid 25”, the “fraction fluorescent probe displaced, Screen” value is -0.00813. For the same compound, the “fraction fluorescent probe displaced, Replicate” value (Acid 25, replicate) worked out at 0.07.

In the case of `O=C(/C=C/c1ccccc1)NC[C@@H]1NC(=O)[C@H](Cc2c[nH]c3ccccc23)NC(=O)[C@H]2CCCN(C2)C(=O)CCSSCCNC1=O` [X B4 W D3 Acid 91], the “fraction fluorescent probe displaced, Screen” value (Acid 91) was 0.16. In addition, the “fraction fluorescent probe displaced, Replicate” value (Acid 91, replicate) came to 0.09.

On to `O=C(C=Cc1ccccc1)NC1CC2C(=O)NC(Cc3c[nH]c4ccccc34)C(=O)NCCSSCCC(=O)NCCC(=O)N2C1` (centres unmarked) [X B2 D5 W Acid 91], for which the “fraction fluorescent probe displaced, Screen” value (Acid 91) came out at 0.03. Under “Acid 91, replicate”, the “fraction fluorescent probe displaced, Replicate” value worked out at 0.0168.

`O=C(NC1CC2C(=O)NC(Cc3c[nH]c4ccccc34)C(=O)NCCSSCCC(=O)N3CCCC3C(=O)N2C1)c1ccc(Cl)s1` (centres unmarked) [X B1 D5 W Acid 14] ([Mpa]P[ξPro(4-NHCO(5-Cl-2-thienyl))]W-Cysteamide; disulfide 1-C; configuration not given here): the “fraction fluorescent probe displaced, Screen” value (Acid 14) amounted to 0.28. For the setting “Acid 14, replicate”, the “fraction fluorescent probe displaced, Replicate” value was 0.0465.

As to `O=C(C=Cc1ccccc1)NC1CC2C(=O)NCCSSCCC(=O)N3CCCC(C3)C(=O)NC(Cc3ccccc3)C(=O)N2C1` (centres unmarked) [X B4 F D5 Acid 91], the “fraction fluorescent probe displaced, Screen” value (Acid 91) is listed as -0.05. The “fraction fluorescent probe displaced, Replicate” value (Acid 91, replicate) is reported as -0.0333.

With `O=C1CCSSCCNC(=O)C2(CCN(C(=O)c3ccc(Cl)s3)CC2)NC(=O)[C@H](Cc2c[nH]c3ccccc23)NC(=O)CCN1` [X B2 W D6 Acid 14], for the setting “Acid 14”, the “fraction fluorescent probe displaced, Screen” value amounted to 0.14. The “fraction fluorescent probe displaced, Replicate” value (Acid 14, replicate) worked out at 0.0465.

As to `O=C(NC[C@@H]1NC(=O)[C@H]2CCCN(C2)C(=O)CCSSCCNC(=O)[C@H](Cc2c[nH]c3ccccc23)NC1=O)c1ccc(Cl)s1` [X B4 D3 W Acid 14], the “fraction fluorescent probe displaced, Screen” value (Acid 14) worked out at 0.63. In addition, the “fraction fluorescent probe displaced, Replicate” value (Acid 14, replicate) is 0.58.

For `O=C1CCSSCCNC(=O)[C@H]2CCCN(C2)C(=O)[C@H](Cc2ccccc2)NC(=O)C2(CCN(C(=O)/C=C/c3ccccc3)CC2)N1` [X D6 F B4 + Acid 91], the “fraction fluorescent probe displaced” value by setting is: (crude reaction of macrocycle scaffold with Acid 91, (initial screen)) 0.03; (crude reaction of macrocycle scaffold with Acid 91, replicate) -0.00827.

`O=C1CCSSCCNC(=O)C(Cc2ccccc2)NC(=O)C2CN(C(=O)c3ccc(Cl)s3)CCN2C(=O)c2cccc(c2)CN1` (mixture of isomers) [X B5 D7 F Acid 14]: the “fraction fluorescent probe displaced, Screen” value (Acid 14) is on record as -0.00483. Under “Acid 14, replicate”, the “fraction fluorescent probe displaced, Replicate” value came out at 0.0465.

Consider `O=C(/C=C/c1ccccc1)N[C@H]1C[C@H]2C(=O)NCc3cccc(c3)C(=O)N[C@@H](Cc3c[nH]c4ccccc34)C(=O)NCCSSCCC(=O)N2C1` [X D5 B5 W Acid 91], for which the “fraction fluorescent probe displaced, Screen” value (Acid 91) was found to be 0.00268. Further, the “fraction fluorescent probe displaced, Replicate” value (Acid 91, replicate) is 0.09.

For the compound `O=C1NC(Cc2ccccc2)C(=O)NC2(CCN(C(=O)c3ccc(Cl)cc3)CC2)C(=O)NCCSSCCC(=O)N2CCCC1C2` (centres unmarked) [X B4 F D6 + Acid 25], the “fraction fluorescent probe displaced” value reads like this: (crude reaction of macrocycle scaffold with Acid 25, (initial screen)) 0.09; (crude reaction of macrocycle scaffold with Acid 25, replicate) 0.17.

In the case of `O=C(C=Cc1ccccc1)NCC1NC(=O)CCSSCCNC(=O)C(Cc2c[nH]c3ccccc23)NC(=O)CCNC1=O` (centres unmarked) [X D3 B2 W Acid 91], the “fraction fluorescent probe displaced, Screen” value (Acid 91) was found to be 0.11. Also, the “fraction fluorescent probe displaced, Replicate” value (Acid 91, replicate) is on record as -0.0333.

As to `O=C1CCNC(=O)[C@H](CNC(=O)c2ccc(Cl)cc2)NC(=O)[C@H](Cc2ccccc2)NC(=O)CCSSCCN1` [X F D3 B2 Acid 25], the “fraction fluorescent probe displaced, Screen” value (Acid 25) is listed as 0.19. Besides, the “fraction fluorescent probe displaced, Replicate” value (Acid 25, replicate) stood at 0.0211.

Consider `Cc1nnsc1C(=O)NC[C@@H]1NC(=O)[C@@H]2CCCN2C(=O)CCSSCCNC(=O)[C@H](Cc2c[nH]c3ccccc23)NC1=O` [X-B1-D3-W + A15] ([Mpa]P[Dap](1,2,3Thiadiazole5CO(4-Me))W-Cysteamide; disulfide 1-C), for which, under setting [1], the “fraction fluorescent probe displaced” value was 0.02409.

As for `O=C1CCSSCCNC(=O)C2CC(NC(=O)c3ccc(Cl)cc3)CN2C(=O)C(Cc2c[nH]c3ccccc23)NC(=O)CCN1` (centres unmarked) [X B2 W D5 Acid 25], for the setting “Acid 25”, the “fraction fluorescent probe displaced, Screen” value is 0.19. In addition, the “fraction fluorescent probe displaced, Replicate” value (Acid 25, replicate) is reported as 0.22.

On to `O=C1CCSSCCNC(=O)[C@H](CNC(=O)c2ccc(Cl)s2)NC(=O)c2cccc(c2)CNC(=O)[C@H](Cc2c[nH]c3ccccc23)N1` [X W B5 D3 Acid 14], for which, for the setting “Acid 14”, the “fraction fluorescent probe displaced, Screen” value was found to be 0.20. Further, the “fraction fluorescent probe displaced, Replicate” value (Acid 14, replicate) was 0.30.

As for `O=C1CCSSCCNC(=O)[C@@H]2C[C@H](NC(=O)c3ccc(Cl)s3)CN2C(=O)[C@H](Cc2c[nH]c3ccccc23)NC(=O)CCN1` [X B2 W D5 Acid 14], where the note is “Acid 14”, the “fraction fluorescent probe displaced, Screen” value came to 0.11. In addition, the “fraction fluorescent probe displaced, Replicate” value (Acid 14, replicate) is recorded as 0.15.

For `O=C1NCCSSCCC(=O)N2CCC[C@H]2C(=O)NC2(CCN(C(=O)c3ccc(Cl)s3)CC2)C(=O)N[C@H]1Cc1ccccc1` [X B1 D6 F Acid 14] ([Mpa]P[Api](2Thenoyl(5-Cl))F-Cysteamide; disulfide 1-C), the “fraction fluorescent probe displaced, Screen” value (Acid 14) was -0.0116. Moreover, the “fraction fluorescent probe displaced, Replicate” value (Acid 14, replicate) was determined as 0.07.

With `O=C1CCSSCCNC(=O)[C@@H]2CCCN2C(=O)[C@@H]2C[C@H](NC(=O)c3ccc(Cl)s3)CN2C(=O)[C@H](Cc2ccccc2)N1` [X F D5 B1 Acid 14] ([Mpa]F[Pro(4S-NHCO(5-Cl-2-thienyl))]P-Cysteamide; disulfide 1-C), under “Acid 14”, the “fraction fluorescent probe displaced, Screen” value was 0.14. Further, the “fraction fluorescent probe displaced, Replicate” value (Acid 14, replicate) came out at 0.0465.
